For assay [1], the system named is CD4+ splenocytes (IFN-γ / IL-4). The assay is described as follows: Ovalbumin-induced model of asthma, T-helper cell polarisation (Th1/Th2 ratio) of CD4+ splenocytes by flow cytometry. The note with it: 0.3 mg/kg daily via the oral route. It is filed as in vivo, Brown Norway rats. The text has this: Bars represent mean Th1/Th2 ratios, shown on the Y-axis, for groups of 10 animals, whiskers represent SEM; * p<0.05 versus unchallenged rats; † p<0.05 versus sensitised and challenged rats, in both cases using Student's unpaired t-test assuming equal variance, with two tails). All rats (except the ‘BN rats’ group, which was not exposed to ovalbumin) received the same sensitisation and challenge regimen, but were either treated with vehicle only (‘Sensitised+vehicle’), or with compound (I′) at 0.3 mg/kg bodyweight or with monteleukast (‘Singulair™’) at 30 mg/kg bodyweight, all administered daily by oral gavage.
Adult Brown Norway rats (200-300 g body weight; n=10 per group) were sensitised by a single intraperitoneal injection of 0.1 mg Ovalbumin on day 0. Each rat then received an intratracheal challenge with a solution of 1% ovalbumin (w/v) on day 8, and with 2% ovalbumin (w/v) on days 15, 18 and 21. The animals were then sacrificed 3 hours after the final challenge on day 21. […]
The spleen was also removed from each […] and placed in RPMI+10% FCS+antibiotics. […] The resulting cell suspension was then centrifuged (328 g; 5 mins) and washed in RPMI+10% FCS+antibiotics, before being resuspended in fresh media and counted using a haemocytometer. […]

Assay [2] relates to SDF-1α induced migration of THP-1 cells. Kind of assay: ChemoTx transwell migration assay, SDF-1α induced migration of THP-1 cells. The assay is classed as cell-based. The note with it: Homo sapiens; THP-1 cell line; maximal dose of chemoattractant; read-out: ED50 SDF-1α induced migration. The procedure: In principle, this assay consists of two chambers separated by a porous membrane. The chemoattractant is placed in the lower compartment and the cells are placed in the upper compartment. After incubation for a period at 37° C. the cells move towards the chemoattractant, and the number of cells in the lower compartment is proportional to the chemoattractant activity (relative to a series of controls).
Next, the chemoattractant solution to be placed in the lower compartment is prepared. For example, MCP-1 is diluted in GBSS+BSA to give a final concentration of 25 ng/ml. This is divided into two pots, as for the cell suspension. To one pot, the test compound is added to the same final concentration as was added to the cell suspension, while to the other pot an equal volume of GBSS+BSA plus vehicle as appropriate (e.g., not more than 1% DMSO) is added. Alternatively, other chemokines may be used (SDF-1α at 7.5 ng/ml; RANTES at 50 ng/ml; IL-8 at 10 ng/ml using neutrophils as the target cell population). […]
The impact of the test substance is calculated by comparing the chemoattractant-induced migration which occurred in the presence or absence of various concentrations of the test substance. Typically, the inhibition of migration is expressed as a percentage of the total chemoattractant-induced migration which was blocked by the presence of the compound. […]

The source of these data is US20150141460A1, “Anti-inflammatory Compositions” (Cambridge Enterprise Limited, priority 2007, published 2015).

On to `CC(C)(C)C(=O)N[C@H]1CCCNC1=O` [Compound (I′), (S)-3-(2′,2′-dimethylpropanoylamino)-tetrahydropyridin-2-one], for which the “effect on Th2 polarisation (Th1/Th2 ratio)” value in assay [1] is “significantly reversed the Th2 polarisation”. Further, the EC50 in assay [2] is 50 pM.
